Source: US20260297031A1, “HYDROXYLAMINE-BASED BCR-ABL1 INHIBITORS FOR TREATMENT OF CANCER” (University of Georgia Research Foundation, Inc., priority 2023, published 2026)
Values after ≈ are worked out from the molar mass of the structure shown.

How the values were obtained:
BCR-ABL1 M351T = biological target: T1, BCR-ABL1 M351T (Homo sapiens, UniProt P00519, M351T); assay: KinaseProfiler radiometric kinase assay, BCR-ABL1 M351T; type: biochemical; details: [ATP] = 10 μM; mean of n = 2
T1 construct: BCR (fusion partner, as the printed name BCR-ABL1 says)

BCR-ABL1 Q252H = biological target: T2, BCR-ABL1 Q252H (Homo sapiens, UniProt P00519, Q252H); assay: KinaseProfiler radiometric kinase assay, BCR-ABL1 Q252H; type: biochemical; details: [ATP] = 10 μM; mean of n = 2
T2 construct: BCR (fusion partner, as the printed name BCR-ABL1 says)

BCR-ABL1 Y253F = biological target: T3, BCR-ABL1 Y253F (Homo sapiens, UniProt P00519, Y253F); assay: KinaseProfiler radiometric kinase assay, BCR-ABL1 Y253F; type: biochemical; details: [ATP] = 10 μM; mean of n = 2
T3 construct: BCR (fusion partner, as the printed name BCR-ABL1 says)

mutant BCR-ABL1 = assay: KinaseProfiler radiometric kinase assay, mutant BCR-ABL1 kinases as a group; type: biochemical, human; details: for IC50: read-out: IC50 against (imatinib resistant / relevant) mutant BCR-ABL1 kinases, group of mutants
From the text: Biochemical Human RTK Kinase Enzymatic Radiometric Assay, KinaseProfiler (Independently Performed by Eurofins Cerep SA, FR)

Aqueous solubility = assay: Aqueous solubility
Experimental: Solubility Determinations (Independently Performed by Pharmaron Inc., Ninqbo, CN)
Test compounds and control compounds (progesterone or diclofenac) were initially prepared as 10 mM DMSO stock solutions. […] After such time, plugs and stir sticks were removed and the samples from the solubility sample plate were transferred into the filter plate. All the samples were then filtered and 5 μL of filtrate was taken and added along with 5 μL of DMSO and 490 μL of a 1:1 (v/v) mixture of H2O and acetonitrile containing internal standard (100 nM alprazolam, 200 nM Caffeine and 100 nM tolbutamide) to the plate yielding a final concentration of 3 μM. The samples were then analyzed by LC-MS and diluted according to the peak shape with ultrapure water.
Filtrate was analyzed and quantified against a standard of known concentration using LC coupled with MS peak identification and quantitation. Solubility values of test compounds and progesterone were calculated as follows and are presented as the mean of n=2 replicates: […]

[1] = Plasma protein binding by equilibrium dialysis, human plasma; type: in vitro ADME; details: for % Unbound: human plasma, 360 min, 5 µM
Experimental: (§1) Plasma Protein Binding by Equilibrium Dialysis (Independently Performed by Pharmaron Inc., Ninqbo, CN)
(§2) Initially, 1 mM solutions of test compounds and the control compound (Ketoconzaole) were prepared in DMSO. After this, dialysis membranes were soaked in ultrapure water for 60 min to separate strips, followed by 20% aq. ethanol for 20 min, and finally in a dialysis buffer for 20 min. […] After this, 597 μL of blank plasma solution followed by 3 μL of the working solutions of either test compounds or control compound were added to a new plastic plate or separate plastic tube and the solutions were vortexed at 1,000 rpm for 2 min. Immediately after this, 50 μL of spiked plasma solution suspension was transferred to a 96-well plate to act as T=0 control. The remaining samples were treated in the same manner, whereby all remaining spiked plasma solutions were added to the incubator for the duration of the study.
Cells were then loaded with 120 μL of the plasma samples and dialyzed against an equal volume of dialysis buffer (PBS). […] At the end of incubation, the lid was removed and 50 μL of post-dialysis samples were removed from both buffer and plasma solution chambers into a separate 96-well plate for analysis. The plasma solutions (50 μL) were then added to the buffer samples along with an equal volume of PBS (50 μL) to the collected plasma solution samples. The plate was shaken at 1,000 rpm for 2 min and 400 μL of acetonitrile containing an appropriate internal standard was added to precipitate protein and release compound. The samples were then vortexed at 1,000 rpm for an additional 10 min followed by centrifugation at 3,220 g for 30 min. Supernatant (250 μL) was then added to a new 96-well plate and centrifuged again at 3,220 g for 30 min and 100 μL of this supernatant was then added to a new 96-well plate for analysis. The samples were analyzed by LC-MS/MS and 100 μL of distilled water was added to each sample prior to analysis.
(§3) Concentrations of test compounds and control compound in buffer and plasma solution chambers was determined and percentages of test compounds and control compound bound using the following equations (mean of n=2 replicates): […]

[2] = Metabolic stability in rat liver microsomes; type: in vitro ADME; details: rat liver microsomes
Experimental: Metabolic Stability in Liver Microsomes (Independently Performed by Pharmaron Inc., Ninqbo, CN)
This experiment was carried out under two separate set of conditions: i) with Cofactors (NADPH), which consisted of adding 25 μL of 10 mM NADPH to the incubations, giving a final NADPH concentration of 1 mM, and ii) without Cofactors (NADPH), which consisted of adding 25 μL of 100 mM phosphate buffer to the incubations. Under both sets of conditions, the final concentration of microsomes were 0.5 mg/mL. […] Samples were then centrifuged at 3,220 g for 40 min and aliquots of 100 μL of the supernatant were mixed with 100 μL of ultra-pure H2O and analyzed by LC-MS/MS.
Peak areas were determined from extracted ion chromatograms. The slope value, k, was determined by linear regression of the natural logarithm of the remaining percentage of the parent drug vs incubation time curve.

[3] = Metabolic stability in rat hepatocytes; type: in vitro ADME; details: rat hepatocytes
Experimental: All calculations were carried out using Microsoft Excel. Peak areas were determined from extracted ion chromatograms.

[4] = Plasma protein binding by equilibrium dialysis, mouse plasma; type: in vitro ADME, mouse (CD-1); details: 360 min, 5 µM
Experimental: as §1, §2
Cells were then loaded with 120 μL of the plasma samples and dialyzed against an equal volume of dialysis buffer (PBS). […] The samples were analyzed by LC-MS/MS and 100 μL of distilled water was added to each sample prior to analysis.
as §3

hERG channel = hERG channel (Homo sapiens, UniProt Q12809); assay: hERG safety evaluation by manual patch-clamp system
Sequence of hERG channel (Q12809 whole entry): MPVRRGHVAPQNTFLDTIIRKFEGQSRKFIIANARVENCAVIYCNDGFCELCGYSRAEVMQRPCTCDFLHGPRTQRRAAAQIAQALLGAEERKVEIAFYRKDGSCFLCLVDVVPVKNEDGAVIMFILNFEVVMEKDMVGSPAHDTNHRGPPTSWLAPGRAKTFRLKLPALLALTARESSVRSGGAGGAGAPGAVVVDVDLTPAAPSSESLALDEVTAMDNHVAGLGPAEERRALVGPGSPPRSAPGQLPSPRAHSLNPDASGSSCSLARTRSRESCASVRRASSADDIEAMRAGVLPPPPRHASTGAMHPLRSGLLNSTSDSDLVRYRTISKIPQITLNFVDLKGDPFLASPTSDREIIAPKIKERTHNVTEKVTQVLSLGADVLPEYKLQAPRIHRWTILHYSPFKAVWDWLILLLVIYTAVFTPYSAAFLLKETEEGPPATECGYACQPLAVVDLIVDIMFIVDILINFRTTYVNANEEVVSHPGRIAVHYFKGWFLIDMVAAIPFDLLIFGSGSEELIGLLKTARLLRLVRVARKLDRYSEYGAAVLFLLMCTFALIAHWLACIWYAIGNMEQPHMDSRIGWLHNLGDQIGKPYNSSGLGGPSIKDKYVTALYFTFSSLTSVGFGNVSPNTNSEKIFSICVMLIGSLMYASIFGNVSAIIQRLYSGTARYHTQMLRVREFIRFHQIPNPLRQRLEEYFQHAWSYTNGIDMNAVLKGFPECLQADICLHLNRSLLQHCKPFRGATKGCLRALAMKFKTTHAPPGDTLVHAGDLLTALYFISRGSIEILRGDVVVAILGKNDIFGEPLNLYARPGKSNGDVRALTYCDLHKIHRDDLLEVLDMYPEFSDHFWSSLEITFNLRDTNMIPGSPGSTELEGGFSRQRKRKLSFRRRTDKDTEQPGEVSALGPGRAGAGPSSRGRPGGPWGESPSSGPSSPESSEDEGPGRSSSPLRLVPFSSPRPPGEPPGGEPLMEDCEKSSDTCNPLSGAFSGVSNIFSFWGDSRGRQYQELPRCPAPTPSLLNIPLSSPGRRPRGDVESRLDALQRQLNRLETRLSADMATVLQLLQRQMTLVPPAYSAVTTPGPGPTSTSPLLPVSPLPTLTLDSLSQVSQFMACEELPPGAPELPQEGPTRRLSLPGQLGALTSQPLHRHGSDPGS

## COc1cc(Nc2c(C#N)cnc3cc(OCCON4CCN(C)CC4)c(OC)cc23)c(F)cc1Cl [Compound 15, 4-((4-chloro-2-fluoro-5-methoxyphenyl)amino)-6-methoxy-7-(2-((4-methylpiperazin-1-yl)oxy)ethoxy)quinoline-3-carbonitrile]
BCR-ABL1 M351T
  IC50: 2 nM
BCR-ABL1 Q252H
  IC50: 2 nM
BCR-ABL1 Y253F
  IC50: 1 nM
Mutant BCR-ABL1
  BCR-ABL1 kinase activity, in words: single-digit nanomolar biochemical activity
  IC50: < 1 nM
Aqueous solubility; phosphate buffer, pH 7.4, aqueous buffer
  solubility kinetic at 2 h: 43 µM (≈ 22.2 µg/mL)
[1]
  % Unbound: 5.58%
[1]; plasma, human, 5 μM, read-out: fu, plasma %
  fraction unbound at 6 h, 5 µM: 0.056
[2]
  half-life at 1 µM: 4.9 min
[2]; read-out: LMCIint (rate of metabolism)
  microsomal CLint at 1 µM: 286 µL/min/mg
[3]
  half-life: 12.3 min
[3]; read-out: HEPCIint (rate of metabolism)
  hepatocyte CLint: 113 µL/min/1e6 cells

## COc1cc(Cl)ccc1Nc1c(C#N)cnc2cc(OCCON3CCN(C)CC3)c(OC)cc12 [Compound 20, 4-((4-Chloro-2-methoxyphenyl)amino)-6-methoxy-7-(2-((4-methylpiperazin-1-yl)oxy)ethoxy)quinoline-3-carbonitrile]
BCR-ABL1 M351T
  IC50: 13 nM
BCR-ABL1 Q252H
  IC50: 10 nM
[1]
  % Unbound: 7.73%
[4]
  % Unbound: 9.71%

## COc1cc2c(Nc3cccc(OC)c3Cl)c(C#N)cnc2cc1OCCON1CCN(C)CC1 [Compound 17, 4-((2-Chloro-3-methoxyphenyl)amino)-6-methoxy-7-(2-((4-methylpiperazin-1-yl)oxy)ethoxy)quinoline-3-carbonitrile]
BCR-ABL1 M351T
  IC50: 31 nM
BCR-ABL1 Q252H
  IC50: 37 nM
Mutant BCR-ABL1
  IC50: ≥ 15 nM
Aqueous solubility
  solubility, in words: high aqueous solubility at pH 7.4
[1]
  % Unbound: 7.37%
[4]
  % Unbound: 11.93%
hERG channel
  hERG liability, in words: minimal hERG inhibition
